In patent publication US20220184086A1, “PLK1 INHIBITORS AND PSA LEVELS IN PROSTATE CANCER” (Cardiff Oncology, Inc., priority 2019, published 2022):
Where two headings read alike, the source gives them in different places.

Experiments:
[1] = Phase 2 study Arm A: absolute neutrophil counts (ANC); type: in vivo, human; details: 7 patients plotted, patients 02-002 and 02-005
Experimental: To evaluate this further, neutrophil levels were assessed for patients within Arm A of the current trial. Absolute neutrophil counts (ANC) are plotted in FIG. 3 for 7 patients, with ANC 1.5 indicated as the threshold for Grade 2 (CTCAE version 4.03). Two patients experienced ≥Grade 2 neutropenia after the first cycle of treatment (02-002 and 02-005).

[2] = system: circulating tumor cells (CTC); assay: Phase 2 study: circulating tumor cell (CTC) evaluation; type: in vivo, human; details: for CTC Fold Change: C1D1 to C5D1; for CTC Count (C5D1): onvansertib+abiraterone
Experimental: Circulating tumor cell (CTC) evaluation, reported as favorable or unfavorable (<5 vs.≥CTC/7.5 ml of blood), is shown in FIG. 8. At baseline, 25 (78%) patients had unfavorable CTC count with median of 19 CTC/7.5 ml. Ten of the unfavorable patients were re-analyzed after 12 weeks of treatment.

CYP2C9 = biological target: T1, CYP2C9 (Homo sapiens, UniProt P11712); assay: Inhibition of human cytochrome P450s, human liver microsomes; type: in vitro ADME; details: Diclofenac 4-hydroxylation, mean ± SEM
T1 construct: was investigated using human liver microsomes; from tissue; host or cells: human liver microsomes

CYP2D6 = biological target: T2, CYP2D6 (Homo sapiens, UniProt P10635); assay: as above; type: in vitro ADME; details: Bufuralol 1-hydroxylation, mean ± SEM
T2 construct: was investigated using human liver microsomes; from tissue; host or cells: human liver microsomes

CYP2C8 = biological target: T3, CYP2C8 (Homo sapiens, UniProt P10632); assay: as above; type: in vitro ADME
T3 construct: was investigated using human liver microsomes; from tissue; host or cells: human liver microsomes
T3 sequence (P10632 1-490): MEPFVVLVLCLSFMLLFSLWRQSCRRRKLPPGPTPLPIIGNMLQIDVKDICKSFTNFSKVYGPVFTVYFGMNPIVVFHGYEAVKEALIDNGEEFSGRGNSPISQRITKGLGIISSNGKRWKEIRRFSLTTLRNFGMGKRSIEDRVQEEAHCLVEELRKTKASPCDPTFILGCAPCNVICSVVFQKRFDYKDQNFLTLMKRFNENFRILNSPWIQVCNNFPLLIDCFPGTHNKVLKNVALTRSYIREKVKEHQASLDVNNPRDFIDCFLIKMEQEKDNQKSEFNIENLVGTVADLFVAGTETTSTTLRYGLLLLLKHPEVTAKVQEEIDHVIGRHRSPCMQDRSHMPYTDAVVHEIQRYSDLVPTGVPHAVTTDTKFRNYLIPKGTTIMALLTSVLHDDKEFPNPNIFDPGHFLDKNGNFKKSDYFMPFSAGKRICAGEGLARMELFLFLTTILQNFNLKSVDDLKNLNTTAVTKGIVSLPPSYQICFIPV

CYP1A2 = biological target: T4, CYP1A2 (Homo sapiens, UniProt P05177); assay: as above; type: in vitro ADME
T4 construct: was investigated using human liver microsomes; from tissue; host or cells: human liver microsomes
T4 sequence (P05177 1-516): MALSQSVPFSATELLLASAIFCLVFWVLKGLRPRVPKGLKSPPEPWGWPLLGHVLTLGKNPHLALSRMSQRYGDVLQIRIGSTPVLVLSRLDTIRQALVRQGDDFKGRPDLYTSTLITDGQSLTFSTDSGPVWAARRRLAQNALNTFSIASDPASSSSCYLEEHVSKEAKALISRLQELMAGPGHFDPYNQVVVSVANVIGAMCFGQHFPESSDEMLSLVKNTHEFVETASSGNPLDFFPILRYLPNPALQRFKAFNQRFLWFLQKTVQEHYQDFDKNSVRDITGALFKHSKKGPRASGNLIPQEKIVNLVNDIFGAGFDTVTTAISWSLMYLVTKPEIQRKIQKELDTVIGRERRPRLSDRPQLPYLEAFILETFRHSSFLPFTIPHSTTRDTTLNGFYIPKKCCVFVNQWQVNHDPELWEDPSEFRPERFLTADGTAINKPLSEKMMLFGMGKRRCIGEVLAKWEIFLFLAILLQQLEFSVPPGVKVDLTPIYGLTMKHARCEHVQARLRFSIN

[3] = system: adult patients with advanced/metastatic solid tumors; details: cited from earlier work
CYP2C19 = biological target: T5, CYP2C19 (Homo sapiens, UniProt P33261); assay: Inhibition of human cytochrome P450s, human liver microsomes; type: in vitro ADME; details: Mephenytoin 4-hydroxylation, mean ± SEM
T5 construct: was investigated using human liver microsomes; from tissue; host or cells: human liver microsomes

[4] = Pharmacokinetics from the prior phase 1 trial; type: in vivo; details: 24 mg/m^2 dose
Excerpt: This is consistent with the observed downward changes of PSA values for patients shown above.

[5] = system: patients with metastatic castration-resistant prostate cancer (mCRPC)
CYP3A4 = biological target: T6, CYP3A4 (Homo sapiens, UniProt P08684); assay: Inhibition of human cytochrome P450s, human liver microsomes; type: in vitro ADME; details: mean ± SEM
T6 construct: was investigated using human liver microsomes; from tissue; host or cells: human liver microsomes

[6] = system: cell lines, both from solid as well as hematologic tumors; details: large number of cell lines; cited from earlier work
xenograft tumor = details: mice, oral administration, well tolerated doses; cited from earlier work
[7] = rodent and nonrodent species; cited from earlier work
[8] = ten patients with unfavorable baseline CTC re-analyzed after 12 weeks of treatment

T6 sequence (P08684 whole entry): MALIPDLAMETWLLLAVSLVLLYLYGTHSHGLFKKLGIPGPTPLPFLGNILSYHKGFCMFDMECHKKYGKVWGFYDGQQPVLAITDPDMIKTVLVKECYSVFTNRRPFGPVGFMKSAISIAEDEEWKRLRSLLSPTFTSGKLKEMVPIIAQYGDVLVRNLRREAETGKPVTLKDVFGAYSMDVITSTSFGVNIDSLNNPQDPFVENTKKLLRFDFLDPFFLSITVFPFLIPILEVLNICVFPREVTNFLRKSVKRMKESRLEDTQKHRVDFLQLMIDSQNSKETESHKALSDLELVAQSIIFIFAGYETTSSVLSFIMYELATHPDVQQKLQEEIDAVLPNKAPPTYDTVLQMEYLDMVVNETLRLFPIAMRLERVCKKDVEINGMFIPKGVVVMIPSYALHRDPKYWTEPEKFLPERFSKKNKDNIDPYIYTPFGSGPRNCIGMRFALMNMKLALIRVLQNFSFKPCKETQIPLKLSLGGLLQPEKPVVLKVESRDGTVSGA
T1 sequence (P11712 whole entry): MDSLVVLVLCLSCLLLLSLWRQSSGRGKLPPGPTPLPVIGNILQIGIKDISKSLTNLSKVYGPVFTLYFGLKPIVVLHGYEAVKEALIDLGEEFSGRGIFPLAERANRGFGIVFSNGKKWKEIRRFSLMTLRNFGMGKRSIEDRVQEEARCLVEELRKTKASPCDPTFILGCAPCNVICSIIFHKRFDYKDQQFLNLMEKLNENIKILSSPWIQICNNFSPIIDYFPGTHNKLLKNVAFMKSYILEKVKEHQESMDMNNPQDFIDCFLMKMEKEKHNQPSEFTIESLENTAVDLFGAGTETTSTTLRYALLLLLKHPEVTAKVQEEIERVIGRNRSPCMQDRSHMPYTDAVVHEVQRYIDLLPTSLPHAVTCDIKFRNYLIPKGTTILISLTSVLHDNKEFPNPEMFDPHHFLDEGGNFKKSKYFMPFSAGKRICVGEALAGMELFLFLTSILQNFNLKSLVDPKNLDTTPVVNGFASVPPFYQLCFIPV
T5 sequence (P33261 whole entry): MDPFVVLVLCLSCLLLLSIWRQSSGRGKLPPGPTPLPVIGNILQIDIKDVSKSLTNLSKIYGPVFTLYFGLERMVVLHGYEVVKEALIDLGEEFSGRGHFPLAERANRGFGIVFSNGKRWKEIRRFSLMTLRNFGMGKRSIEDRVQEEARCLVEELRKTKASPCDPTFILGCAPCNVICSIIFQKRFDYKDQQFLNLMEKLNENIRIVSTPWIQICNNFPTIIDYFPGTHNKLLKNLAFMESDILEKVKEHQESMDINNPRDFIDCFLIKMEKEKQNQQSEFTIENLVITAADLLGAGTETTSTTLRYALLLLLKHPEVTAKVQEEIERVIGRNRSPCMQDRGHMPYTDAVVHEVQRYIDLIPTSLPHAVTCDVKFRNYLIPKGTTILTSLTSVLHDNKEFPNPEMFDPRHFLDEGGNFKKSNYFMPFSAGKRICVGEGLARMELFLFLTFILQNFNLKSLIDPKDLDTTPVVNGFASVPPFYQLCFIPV
T2 sequence (P10635 whole entry): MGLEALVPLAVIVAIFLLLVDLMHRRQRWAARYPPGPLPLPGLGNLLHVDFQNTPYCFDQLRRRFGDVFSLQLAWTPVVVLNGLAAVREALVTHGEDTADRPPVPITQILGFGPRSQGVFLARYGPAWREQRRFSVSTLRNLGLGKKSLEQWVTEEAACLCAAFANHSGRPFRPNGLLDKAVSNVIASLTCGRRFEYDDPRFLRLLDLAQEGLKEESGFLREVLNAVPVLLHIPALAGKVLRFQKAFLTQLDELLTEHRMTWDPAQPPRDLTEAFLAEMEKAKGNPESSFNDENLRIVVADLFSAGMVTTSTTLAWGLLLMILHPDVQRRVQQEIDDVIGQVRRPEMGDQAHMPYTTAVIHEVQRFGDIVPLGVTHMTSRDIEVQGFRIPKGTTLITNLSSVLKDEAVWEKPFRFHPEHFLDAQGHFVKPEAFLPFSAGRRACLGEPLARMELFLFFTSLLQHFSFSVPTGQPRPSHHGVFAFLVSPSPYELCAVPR

SMILES: CN1CCN(c2ccc(OC(F)(F)F)c(Nc3ncc4c(n3)-c3c(c(C(N)=O)nn3CCO)CC4)c2)CC1 [onvansertib, 1-(2-hydroxyethyl)-8-{[5-(4-methylpiperazin-1-yl)-2-(trifluoromethoxy)phenyl]amino}-4,5-dihydro-1H-pyrazolo[4,3-h]quinazoline-3-carboxamide]
- patients with ≥Grade 2 neutropenia after the first cycle [1]: Two
- CTC Fold Change ([2]; patient 02-003): 17.9
- CTC Count (C5D1) ([2]; patient 02-003, CTC count at C1D1 4.4): 78.6
- CTC Fold Change ([2]; patient 02-007): 6.9
- CTC Count (C5D1) ([2]; patient 02-007, CTC count at C1D1 2.5): 17.3
- CTC Fold Change ([2]; patient 03-004): 3.0
- CTC Count (C5D1) ([2]; patient 03-004, CTC count at C1D1 0.4): 1.2
- CTC Fold Change ([2]; patient 03-009): 1.5
- CTC Count (C5D1) ([2]; patient 03-009, CTC count at C1D1 3.7): 5.4
- CTC Fold Change ([2]; patient 03-013): 1.4
- CTC Count (C5D1) ([2]; patient 03-013, CTC count at C1D1 2.2): 3.0
- median time on treatment ([2]; patients with decrease CTC (n=5), to-date): 7 months
- median time on treatment ([2]; patients with increase CTC (n=5)): 5 months
- patients converted from unfavorable to favorable CTC level (<5 CTC/7.5 ml) [2, 8]: 40%
- patients with a ≥80% CTC decrease [2, 8]: 50%
- patients with no detectable CTC [2, 8]: 30%
- IC50 (CYP2C9): 20.4 ± 3.2 µM
- IC50 (CYP2D6): 26.8 ± 5.4 µM
- IC50 (CYP2C8): 20.2 ± 1.6 µM
- inhibitory effects against CYP1A2 (CYP1A2): No significant inhibitory effects
- IC50 (CYP1A2; Tacrine 1-hydroxylation): > 100 µM
- DLTs observed ([3]; 36 mg/m^2/day, four patients treated): two
- patients who developed DLTs ([3]; 48 mg/m^2/day): 2 of 3
- dose-limiting toxicities (DLT) ([3]; first 3 dose levels (6, 12, and 24 mg/m^2/day)): No DLTs
- outcome of the one evaluable patient with prostate cancer ([3]; in vivo): disease progression
- primary toxicities ([3]; in vivo): thrombocytopenia and neutropenia
- best observed treatment response: disease stabilization ([3]; of the 16 evaluable patients): 5 patients
- maximum tolerated dose (MTD) ([3]; oral, 5 consecutive days every 3 weeks): 24 mg/m^2/day
- recovery of hematologic toxicities ([3]; thrombocytopenia and neutropenia, reversible): ≤ 3 weeks
- IC50 (CYP2C19): 36.9 ± 15.7 µM
- time at which the amount of onvansertib is below the 10×IC50 value [4]: 160 h
- concentration at 290 h ([4]; human, plasma, oral, 0.1 ng/ml is the limit of quantitation, read-out: drug concentrations at 290 hours (˜12 days)): < 0.1 ng/mL
- patients with disease stabilization after 5 or more treatment cycles ([5]; 03-013 (Arm A) and 01-024 (Arm B)): two
- initial PSA stabilization or decrease in AR-V7+ subjects ([5]; AR-V7+ subjects (n=4), August 2019): all
- AR-V7 positive patients achieving the primary endpoint of stable disease ([5]; AR-V7 positive patients who completed 3 months of treatment): Three of 4
- initial PSA stabilization or decrease in AR-V7 positive patients ([5]; AR-V7 positive patients who completed at least 1 cycle (n=5)): all
- patients achieving the efficacy endpoint (PSA stabilization) ([5]; Arm A (n=14)): 5 patients
- patients remaining on treatment for >1 year ([5]; Arm A (n=14)): 2 patients
- patients with SD or PR at 12 weeks ([5]; Arm A (n=14), 8 of 14): 57%
- patients who have or had progression-free survival ([5]; Arm A, 3 of 14): 21%
- PSA values at day 8 relative to baseline ([5]; Arm A, after dosing on days 1-5, with abiraterone and prednisone, then increase until next cycle): go down
- subjects with initial disease stabilization or reduction, based on PSA levels ([5]; Arm B): 3 subjects
- patients achieving the efficacy endpoint (PSA stabilization) ([5]; Arm B (n=5)): 3 patients
- patients with SD at 12 weeks ([5]; Arm B (n=5), 4 of 5): 80%
- patients who have or had progression-free survival of >7 months ([5]; Arm B, 3 of 5): 60%
- tumor shrinkage by CT scan at the end of the study ([5]; Patient 03-013 (AR-V7), Arm A): ~30%
- PSA level increase after onvansertib was added ([5]; Patient 03-013 (AR-V7), Arm A, 84 days, with abiraterone/prednisone): 8.4%
- PSA level above the baseline (C1D1) PSA level ([5]; Patient 03-013, Arm A, into the fifth cycle): below 25%
- patients with decreases in PSA levels ([5]; after 1 cycle of treatment with addition of onvansertib, eighteen out of 25): 72%
- AR-V7+ patients who met the primary efficacy endpoint ([5]; of AR-V7+ subjects (n=4), 03-013, 01-024): Two
- patients confirmed AR-V7+ that have shown a PSA response ([5]; patients who completed 4 cycles (12 weeks), onvansertib added to abiraterone): 2 of 6
- IC50 (CYP3A4; Midazolam l′-hydroxylation): 66.2 ± 4 µM
- IC50 (CYP3A4; Testosterone 6β-hydroxylation): 52.7 ± 9.8 µM
- activity in proliferation assays [6]: low nanomolar activity
- xenograft tumor growth (xenograft tumor): inhibits xenograft tumor growth
- oral bioavailability [7]: good oral bioavailability
